Measured values: patent US12624049B2, “Salt and crystal forms of 4-amino-5-(6-(4-methylpiperazin-1-yl)-1H-benzo[d]imidazol-z-yl)thieno[2.3-b]pyridin-6(7H)-one” (UNIVERSITY HEALTH NETWORK, priority 2020, dated 2026)
≈ marks a conversion by molar mass, not a printed value. Where a name gives a salt, the structure may show the parent alone. Read-outs that look alike come from different tables or passages of the source.

How the values were obtained:
[1] = Solubility in water, SGF and FaSSIF (supernatant by HPLC/UPLC); type: physicochemical; details: for Solubility (mg/mL) water: stirred 1 h at ambient temperature, analyzed at 24 h; for Solubility (mg/mL) FaSSIF: fasted state simulated intestinal fluid buffer, target 2 mg/mL; for Solubility (mg/mL) FaSSIF / Solubility (mg/mL) SGF: 24 h at 37° C.; for Solubility (mg/mL) SGF: simulated gastric fluid buffer, target 10 mg/mL
Method: The compounds to be tested were prepared in 3 different media as described below.
Samples prepared in water: approximately 30-40 mg of test material was weighted into a glass vial. 1 mL of water was added. The sample was stirred for 1 h at ambient temperature and the sample was analyzed by HPLC at 24 h.
Samples prepared in simulated gastric fluid (SGF) buffer: approximately 40 mg of test material was weighted into a glass vial. 4 mL of SGF buffer was added to make a target concentration at 10 mg/mL. The sample was stirred for 24 h at 37° C. and the sample was analyzed by HPLC at 24 h.
Samples prepared in fasted state simulated intestinal fluid (FaSSIF) buffer: approximately 8 mg of test material was weighted into a glass vial. 4 mL of FassiF buffer was added to make a target concentration at 2 mg/mL. The sample was stirred for 24 h at 37° C. and the sample was analyzed by HPLC at 24 h.
The samples were stirred for 1 h at ambient temperature or 24 h at 37° C. The samples were then centrifuged and the resulting supernatants were analyzed by HPLC to determine the solubility.

[2] = Pharmacokinetics after single oral dose (powder in capsule), Compound (I) plasma level by LC/MS; type: in vivo, male Beagle dogs
Method: A single dose as powder in capsule of Compound (I), 1:1 Compound (I) mono HCl salt (Batch 3), di-HCl salt of Compound (I), and 1:1 Compound (I) tartrate salt was administrated to male Beagle dogs at either 125 mg/kg or 150 mg/kg. Blood samples were collected for up to 24 h and the plasma was analyzed for Compound (I) plasma level by LC/MS.

[3] = Hygroscopicity measurement by DVS apparatus; type: physicochemical; details: for Change in Mass (%) Water uptake at 30% RH / Change in Mass (%) Water uptake at 60% RH / Change in Mass (%) Water uptake at 90% RH: DVS, 25° C.
Method: In another embodiment, 1:1 Compound (I) tartrate salt is characterized by a hygroscopicity measurement, wherein water uptake is less than 4% (e.g. 2% or 1%) of the mass of the tartrate salt at 90% relative humidity (RH); or less than 2% (e.g. 1% or 0.5%) of the mass of the tartrate salt at 60% RH; or less than 1% (e.g. 0.5% or 0.1%) of the mass of the tartrate salt at 30% RH. The hygroscopicity in different relative humidity (RH) is measured under following conditions: • i) drying between 0.5 and 1.5 mg of the tartrate salt under a nitrogen atmosphere at 0% relative humidity for 2 hours; • ii) increasing or decreasing the relative humidity in steps of 10% from 0% to 90% then to 0%; • iii) maintaining the relative humidity at each step until the mass change compared to the mass of the original tartrate salt per minute is less than 0.01 (%/min), provided that minimum and maximum duration time at each step is 10 minutes and 180 minutes, respectively; and • iv) measuring the mass of the tartrate salt at the desired relative humidity (e.g., 90%, 60%, or 30%) and wherein steps i)-iv) are carried out at 25° C.
The compound to be tested is submitted to hygroscopicity test by means of a DVS apparatus. The testing parameters are in Table 5.

[4] = Long term stability under 3 storage conditions (appearance, HPLC purity/impurities, XRPD form); type: physicochemical; details: for Purity / Total amount of impurities: HPLC; for Crystalline form: XRPD
Method: A representative method used for stability evaluation is summarized Table 2.
Purity and stability of 4-amino-5-(6-(4-methylpiperazin-1-yl)-1H-benzo[d]imidazol-2-yl)thieno[2,3-b]pyridin-6(7H)-one (I) tartrate have been tested. Stability samples were prepared and stored under 3 different storage conditions: 2-8° C./ambient RH, 25° C./60% RH, and 40° C./75% RH. Stability samples were removed from their storage conditions within each pull window, and the samples were allowed to equilibrate to ambient conditions prior to analysis. The appearance was evaluated by visual inspection, purity and total amount of impurities were analyzed by HPLC and crystalline form was characterized by XRPD.

With CN1CCN(c2ccc3[nH]c(-c4c(N)c5ccsc5[nH]c4=O)nc3c2)CC1 [Di-HCl salt, 4-amino-5-(6-(4-methylpiperazin-1-yl)-1H-benzo[d]imidazol-2-yl)thieno[2,3-b]pydidin-6(7H)-one (I) Di-Hydrochloride] the “Solubility (mg/mL) water” value ([1]; Di-Hydrochloride) was 3.3 mg/mL, the “AUC0−tlast” value ([2]; beagle dogs, oral dose 125 mg/kg, powder in capsule, plasma, up to 24 h, Di-Hydrochloride, 125 mg/kg) was 6862 ng·h/mL and the Cmax ([2]; beagle dogs, oral dose 125 mg/kg, powder in capsule, plasma, Di-Hydrochloride, 125 mg/kg) was 530 ng/mL.

In the case of CN1CCN(c2ccc3nc(-c4c(N)c5ccsc5[nH]c4=O)[nH]c3c2)CC1 [Mono HCl salt (Batch 3)], the “Change in Mass (%) Water uptake at 30% RH” value (“Change in Mass … at 30% RH” for short) [3] is reported as 3.7%, the “Change in Mass (%) Water uptake at 60% RH” value (“Change in Mass … at 60% RH” for short) [3] is reported as 6.1% and the “Change in Mass (%) Water uptake at 90% RH” value (“Change in Mass … at 90% RH” for short) [3] is reported as 38.3%. For the same compound, the “Solubility (mg/mL) FaSSIF” value ([1]; Batch 3) was 0.22 mg/mL, the “Solubility (mg/mL) SGF” value ([1]; Batch 3) was 9.0 mg/mL and the “Solubility (mg/mL) water” value ([1]; Batch 3) was 10.2 mg/mL. For the same compound, the “AUC0−tlast” value ([2]; beagle dogs, oral dose 125 mg/kg, powder in capsule, plasma, up to 24 h, listed as Mono HCl (Batch 3), 125 mg/kg) was 4354 ng·h/mL and the Cmax ([2]; beagle dogs, oral dose 125 mg/kg, powder in capsule, plasma, listed as Mono HCl (Batch 3), 125 mg/kg) was 547 ng/mL.

In the case of CN1CCN(c2ccc3nc(-c4c(N)c5ccsc5[nH]c4=O)[nH]c3c2)CC1 [Free base, 4-amino-5-(6-(4-methylpiperazin-1-yl)-1H-benzo[d]imidazol-2-yl)thieno[2,3-b]pyridin-6(7H)-one], the “Change in Mass … at 30% RH” value [3] is reported as 0.5%, the “Change in Mass … at 60% RH” value [3] is reported as 0.9% and the “Change in Mass … at 90% RH” value [3] is reported as 26%. For the same compound, the “Solubility (mg/mL) FaSSIF” value [1] was 0.09 mg/mL (≈ 237 µM), the “Solubility (mg/mL) SGF” value [1] was 0.5 mg/mL (≈ 1310 µM) and the “Solubility (mg/mL) water” value [1] was 0.3 mg/mL (≈ 788 µM). For the same compound, the “AUC0−tlast” value ([2]; beagle dogs, oral dose 125 mg/kg, powder in capsule, plasma, up to 24 h, 125 mg/kg) was 2264 ng·h/mL and the Cmax ([2]; male, beagle, dog, plasma, po, 125 mg/kg, beagle dogs, oral dose 125 mg/kg, powder in capsule, plasma, read-out: Cmax) was 301 ng/mL.

In the case of CN1CCN(c2ccc3nc(-c4c(N)c5ccsc5[nH]c4=O)[nH]c3c2)CC1 [Tartrate salt, 4-amino-5-(6-(4-methylpiperazin-1-yl)-1H-benzo[d]imidazol-2-yl)thieno[2,3-b]pyridin-6(7H)-one (I) tartrate], the “Change in Mass … at 30% RH” value [3] is reported as 0.06%, the “Change in Mass … at 60% RH” value [3] is reported as 0.3% and the “Change in Mass … at 90% RH” value [3] is reported as 0.7%. For the same compound, the “Hygroscopicity (in words)” value ([3]; crystalline form, see Example 6) was “non-hygroscopic”, the “Solubility (mg/mL) FaSSIF” value [1] was 0.02 mg/mL and the “Solubility in water and in simulated gastric fluids (in words)” value ([1]; see Example 7 and Table 7) was “improved solubility”. The “Solubility (mg/mL) SGF” value [1] was 9.0 mg/mL, the Purity ([4]; 5° C./ambient RH, 1 month) was 100% and the “Total amount of impurities” value ([4]; 5° C./ambient RH, 1 month) was 0.03%. For the same compound, the Purity ([4]; 5° C./ambient RH, 3 month) was 100%, the “Total amount of impurities” value ([4]; 5° C./ambient RH, 3 month) was 0.0% and the Purity ([4]; 5° C./ambient RH, 6 month) was 100%. The “Total amount of impurities” value ([4]; 5° C./ambient RH, 6 month) was 0.03%, the Purity ([4]; 5° C./ambient RH, 12 month) was 100% and the “Total amount of impurities” value ([4]; 5° C./ambient RH, 12 month) was 0.03%. The Purity ([4]; 5° C./ambient RH, Initial) was 100%, the “Total amount of impurities” value ([4]; 5° C./ambient RH, Initial) was 0.03% and the Crystalline form ([4]; 5° C./ambient RH, Initial) was “Yes”. The Purity ([4]; 25° C./60% RH, 1 month) was 100%, the “Total amount of impurities” value ([4]; 25° C./60% RH, 1 month) was 0.02% and the Purity ([4]; 25° C./60% RH, 3 month) was 100%. The “Total amount of impurities” value ([4]; 25° C./60% RH, 3 month) was 0.03%, the Purity ([4]; 25° C./60% RH, 6 month) was 100% and the “Total amount of impurities” value ([4]; 25° C./60% RH, 6 month) was 0.03%. For the same compound, the Purity ([4]; 25° C./60% RH, 12 month) was 100%, the “Total amount of impurities” value ([4]; 25° C./60% RH, 12 month) was 0.03% and the Purity ([4]; 25° C./60% RH, Initial) was 100%. For the same compound, the “Total amount of impurities” value ([4]; 25° C./60% RH, Initial) was 0.03%, the Crystalline form ([4]; 25° C./60% RH, Initial) was “Yes” and the Purity ([4]; 40° C./75% RH, 1 month) was 100%. For the same compound, the “Total amount of impurities” value ([4]; 40° C./75% RH, 1 month) was 0.02%, the Purity ([4]; 40° C./75% RH, 3 month) was 100% and the “Total amount of impurities” value ([4]; 40° C./75% RH, 3 month) was 0.03%. For the same compound, the Purity ([4]; 40° C./75% RH, 6 month) was 100%, the “Total amount of impurities” value ([4]; 40° C./75% RH, 6 month) was 0.03% and the Purity ([4]; 40° C./75% RH, 12 month) was 100%. For the same compound, the “Total amount of impurities” value ([4]; 40° C./75% RH, 12 month) was 0.03%, the Purity ([4]; 40° C./75% RH, Initial) was 100% and the “Total amount of impurities” value ([4]; 40° C./75% RH, Initial) was 0.03%. The Crystalline form ([4]; 40° C./75% RH, Initial) was “Yes”, the “Shelf life (in words)” value ([4]; see Example 8) was “extended shelf life” and the “Plasma concentrations in dogs following oral administration (in words)” value ([2]; compared to the free base and the mono HCl salt) was “improved plasma concentrations”. For the same compound, the AUC(0-t) ([2]; male, beagle, dog, plasma, po, 150 mg/kg, beagle dogs, oral dose 150 mg/kg, powder in capsule, plasma, up to 24 h, read-out: AUC0−tlast) was 6550 ng·h/mL and the Cmax ([2]; male, beagle, dog, plasma, po, 150 mg/kg, beagle dogs, oral dose 150 mg/kg, powder in capsule, plasma, read-out: Cmax) was 514 ng/mL.
